The record followed here is patent US20250171437A1 (Agios Pharmaceuticals,Inc., priority 2022, published 2025).

The assay deals with T1, human PAH with the R408W mutation (A375 R408W cells) (Homo sapiens, UniProt P00439, R408W).
T1 construct: expressed in transfected cells
T1 sequence (P00439 1-452 R408W): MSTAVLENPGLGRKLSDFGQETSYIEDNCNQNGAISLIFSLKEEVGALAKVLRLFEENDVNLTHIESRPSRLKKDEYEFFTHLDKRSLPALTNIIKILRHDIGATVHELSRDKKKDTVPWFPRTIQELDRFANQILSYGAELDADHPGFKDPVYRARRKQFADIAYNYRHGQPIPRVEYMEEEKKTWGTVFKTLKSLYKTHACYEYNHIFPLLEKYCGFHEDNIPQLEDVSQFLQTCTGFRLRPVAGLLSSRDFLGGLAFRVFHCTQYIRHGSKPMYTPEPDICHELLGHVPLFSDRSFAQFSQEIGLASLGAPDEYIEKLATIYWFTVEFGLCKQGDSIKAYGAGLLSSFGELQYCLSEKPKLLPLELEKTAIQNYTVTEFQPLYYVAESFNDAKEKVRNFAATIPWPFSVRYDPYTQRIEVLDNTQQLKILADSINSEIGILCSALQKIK
Kind of assay: Cell Based Phenylalanine Flux Assay. Conditions: 24 hrs with compound, then 20 μM sepiapterin and 800 μM 13C9,15N-Phenylalanine for 4 hours, 13C-Tyrosine by LC-MS, average where tested multiple times. An outline of the steps: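 Stable R408W PAH A375 cells: 24 h compound pretreatment in duplicate, then 4 h with 800 μM isotope-labelled Phe and 20 μM sepiapterin. Labelled Tyr output by LC-MS; AC50 averaged where repeated.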

Setting [1] is: A375 cells expressing R408W PAH.

Some results are limits rather than exact numbers.

For the compound `Cc1cc(C(=O)N2CCc3[nH]cnc3[C@@H]2c2nc3cccc(F)c3o2)n(C)n1` [Example 770, (R)-(1,3-dimethyl-1H-pyrazol-5-yl)(4-(7-fluorobenzo[d]oxazol-2-yl)-6,7-dihydro-1H-imidazo[4,5-c]pyridin-5(4H)-yl)methanone], the AC50 (A375 R408W cells) lay within 1 to 5 µM.
Take `COc1ccc2oc(C3c4nc[nH]c4CCN3C(=O)c3cnco3)nc2c1` (stereo not shown): the AC50 under setting [1] was at least 5 µM.
For the compound `O=C(c1ncc(Cl)s1)N1CCc2[nH]cnc2C1c1nc2cc(F)ccc2o1` (stereo not shown), under setting [1], the half-maximal activity concentration (AC50) lay in the range of 1 to 5 µM.
`CC(C)(O)c1nc(Cl)c(C(=O)N2CCc3[nH]cnc3[C@@H]2c2nc3cccc(F)c3o2)o1` [Example 271, (R)-(4-chloro-2-(2-hydroxypropan-2-yl)oxazol-5-yl)(4-(7-fluorobenzo[d]oxazol-2-yl)-6,7-dihydro-1H-imidazo[4,5-c]pyridin-5(4H)-yl)methanone]: the AC50 (A375 R408W cells) was 1 to 5 µM.
Still for that read-out and setting: the figure for `Cc1ccc2nc([C@@H]3c4nc[nH]c4CCN3C(=O)c3nnc(-c4ccn(C)n4)o3)oc2c1` [Example 357, (S)-(5-(1-methyl-1H-pyrazol-3-yl)-1,3,4-oxadiazol-2-yl)(4-(6-methylbenzo[d]oxazol-2-yl)-6,7-dihydro-1H-imidazo[4,5-c]pyridin-5(4H)-yl)methanone] is 0.5 to 1 µM.
Consider `O=C(c1nnc(-c2cnn(C(F)F)c2)o1)N1CCc2[nH]cnc2[C@H]1c1nc2ccccc2o1` [Example 841, (S)-(4-(benzo[d]oxazol-2-yl)-6,7-dihydro-1H-imidazo[4,5-c]pyridin-5(4H)-yl)(5-(1-(difluoromethyl)-1H-pyrazol-4-yl)-1,3,4-oxadiazol-2-yl)methanone], for which the AC50 (A375 R408W cells) was at most 0.5 µM.
On the same count and under the same terms, the figure for `Cc1nc(C(C)(C)O)oc1C(=O)N1CCc2[nH]cnc2[C@@H]1c1nc2cccc(F)c2o1` [Example 267, (R)-(4-(7-fluorobenzo[d]oxazol-2-yl)-6,7-dihydro-1H-imidazo[4,5-c]pyridin-5(4H)-yl)(2-(2-hydroxypropan-2-yl)-4-methyloxazol-5-yl)methanone] is 1 to 5 µM; for `Cc1nc(C(=O)N2CCc3[nH]cnc3[C@@H]2c2nc3cccc(F)c3o2)n(C)n1` [Example 496, (R)-(1,3-dimethyl-1H-1,2,4-triazol-5-yl)(4-(7-fluorobenzo[d]oxazol-2-yl)-6,7-dihydro-1H-imidazo[4,5-c]pyridin-5(4H)-yl)methanone] it is 1 to 5 µM.
Same read-out and setting: the figure for `Cn1cc(-c2nc(C(F)F)c(C(=O)N3CCc4[nH]cnc4[C@@H]3c3nc4ccccc4o3)o2)cn1` [Example 759, (R)-(4-(benzo[d]oxazol-2-yl)-6,7-dihydro-1H-imidazo[4,5-c]pyridin-5(4H)-yl)(4-(difluoromethyl)-2-(1-methyl-1H-pyrazol-4-yl)oxazol-5-yl)methanone] is 1 to 5 µM.
With `Cc1ccc2oc(C3c4nc[nH]c4CCN3C(=O)c3cnn4cc(CCN(C)C)ccc34)nc2c1` (stereo not shown), the AC50 under setting [1] was at least 5 µM.
For `O=C(c1nnc(N2CCOCC2)o1)N1CCc2[nH]cnc2C1c1nc2cc(F)ccc2o1` (stereo not shown), the AC50 under setting [1] is 1 to 5 µM.
`Cn1cncc1-c1nc(C(F)(F)F)c(C(=O)N2CCc3[nH]cnc3[C@@H]2c2nc3cc(F)ccc3o2)o1` [Example 792, (R)-(4-(5-fluorobenzo[d]oxazol-2-yl)-6,7-dihydro-1H-imidazo[4,5-c]pyridin-5(4H)-yl)(2-(1-methyl-1H-imidazol-5-yl)-4-(trifluoromethyl)oxazol-5-yl)methanone]: the AC50 (A375 R408W cells) lay within 1 to 5 µM.
On to `Cc1nnc(C(=O)N2CCc3[nH]cnc3C2c2nc3cc(F)ccc3o2)o1` (stereo not shown), for which the AC50 under setting [1] was in the range of 1 to 5 µM.
Regarding `Cc1ccc2oc([C@@H]3c4nc[nH]c4CCN3C(=O)c3nnc(-c4cn[nH]c4)o3)nc2c1` [Example 491, (S)-(5-(1H-pyrazol-4-yl)-1,3,4-oxadiazol-2-yl)(4-(5-methylbenzo[d]oxazol-2-yl)-6,7-dihydro-1H-imidazo[4,5-c]pyridin-5(4H)-yl)methanone], the AC50 (A375 R408W cells) fell in the range of 0.5 to 1 µM.
Still for that read-out and setting: the figure for `O=C(c1ccnn1C(F)(F)F)N1CCc2[nH]cnc2[C@@H]1c1nc2c(F)cccc2o1` [Example 294, (R)-(4-(4-fluorobenzo[d]oxazol-2-yl)-6,7-dihydro-1H-imidazo[4,5-c]pyridin-5(4H)-yl)(1-(trifluoromethyl)-1H-pyrazol-5-yl)methanone] is 1 to 5 µM; for `Cn1nc(Br)nc1C(=O)N1CCc2[nH]cnc2[C@@H]1c1nc2c(F)cccc2o1` [Example 472, (R)-(3-bromo-1-methyl-1H-1,2,4-triazol-5-yl)(4-(4-fluorobenzo[d]oxazol-2-yl)-6,7-dihydro-1H-imidazo[4,5-c]pyridin-5(4H)-yl)methanone] it is 1 to 5 µM.
In the case of `O=C(c1oc(N2CCC(F)CC2)nc1C(F)F)N1CCc2[nH]cnc2[C@@H]1c1nc2cccc(F)c2o1` [Example 675, (R)-(4-(difluoromethyl)-2-(4-fluoropiperidin-1-yl)oxazol-5-yl)(4-(7-fluorobenzo[d]oxazol-2-yl)-6,7-dihydro-1H-imidazo[4,5-c]pyridin-5(4H)-yl)methanone], the AC50 (A375 R408W cells) is at most 0.5 µM.
Same read-out and setting: as for `O=C(c1cccnc1)N1Cc2[nH]cnc2[C@H]1c1nc2ccccc2o1` [Example 927, (S)-(4-(benzo[d]oxazol-2-yl)-4,6-dihydropyrrolo[3,4-d]imidazol-5(1H)-yl)(pyridin-3-yl)methanone], the figure is at least 5 µM; as for `CC(C)(O)c1nc(C(F)F)c(C(=O)N2CCc3[nH]cnc3[C@@H]2c2nc3c(F)cc(F)cc3o2)o1` [Example 300, (R)-(4-(4,6-difluorobenzo[d]oxazol-2-yl)-6,7-dihydro-1H-imidazo[4,5-c]pyridin-5(4H)-yl)(4-(difluoromethyl)-2-(2-hydroxypropan-2-yl)oxazol-5-yl)methanone], 1 to 5 µM.
For `O=C(c1ccnn1C1CC1)N1CCc2[nH]cnc2[C@H]1c1nc2cccc(F)c2o1` [Example 727, (S)-(1-cyclopropyl-1H-pyrazol-5-yl)(4-(7-fluorobenzo[d]oxazol-2-yl)-6,7-dihydro-1H-imidazo[4,5-c]pyridin-5(4H)-yl)methanone], the AC50 (A375 R408W cells) is 0.5 to 1 µM.
On the same count and under the same terms, as for `O=C(c1nnc(-c2ccccn2)o1)N1CCc2[nH]cnc2[C@@H]1c1nc2c(F)cc(F)cc2o1` [Example 524, (R)-(4-(4,6-difluorobenzo[d]oxazol-2-yl)-6,7-dihydro-1H-imidazo[4,5-c]pyridin-5(4H)-yl)(5-(pyridin-2-yl)-1,3,4-oxadiazol-2-yl)methanone], the figure is 1 to 5 µM.
The same measure, in the same setting: as for `Cn1cnc(-c2nc(C(F)F)c(C(=O)N3CCc4[nH]cnc4[C@H]3c3nc4ccccc4o3)o2)c1` [Example 786, (S)-(4-(benzo[d]oxazol-2-yl)-6,7-dihydro-1H-imidazo[4,5-c]pyridin-5(4H)-yl)(4-(difluoromethyl)-2-(1-methyl-1H-imidazol-4-yl)oxazol-5-yl)methanone], the figure is 0.5 to 1 µM.
In the case of `CC(C)(c1nc(C(F)F)c(C(=O)N2CCc3[nH]cnc3C2c2nc3cc(F)ccc3o2)o1)S(C)(=O)=O` (stereo not shown), the AC50 under setting [1] lay within 1 to 5 µM.
For `O=C(c1nnc(-c2ccn(C(F)F)n2)o1)N1CCc2[nH]cnc2[C@H]1c1nc2cccc(C(F)(F)F)c2o1` [Example 854, (S)-(5-(1-(difluoromethyl)-1H-pyrazol-3-yl)-1,3,4-oxadiazol-2-yl)(4-(7-(trifluoromethyl)benzo[d]oxazol-2-yl)-6,7-dihydro-1H-imidazo[4,5-c]pyridin-5(4H)-yl)methanone], the AC50 (A375 R408W cells) was at most 0.5 µM.
Consider `O=C(c1nncn1C1CC1)N1CCc2[nH]cnc2C1c1nc2cc(F)ccc2o1` (stereo not shown), for which the AC50 under setting [1] lay within 1 to 5 µM.
As to “(R)-(3-(difluoromethyl)-1-methyl-1H-1,2,4-triazol-5-yl)(4-(4-methylbenzo[d]oxazol-2-yl)-6,7-dihydro-1H-imidazo[4,5-c]pyridin-5(4H)-yl)methanone [Example 814]”, the concentration at half-maximal activity (AC50) (A375 R408W cells) was at most 0.5 µM.
On the same count and under the same terms, the figure for `CN1CCN(c2nc(C(F)F)c(C(=O)N3CCc4[nH]cnc4[C@H]3c3nc4cccc(F)c4o3)o2)CC1` [Example 617, (S)-(4-(difluoromethyl)-2-(4-methylpiperazin-1-yl)oxazol-5-yl)(4-(7-fluorobenzo[d]oxazol-2-yl)-6,7-dihydro-1H-imidazo[4,5-c]pyridin-5(4H)-yl)methanone] is at most 0.5 µM; for `O=C(c1oc(N2CCOCC2)nc1C(F)F)N1CCc2[nH]cnc2[C@H]1c1nc2cccc(F)c2o1` [Example 648, (S)-(4-(difluoromethyl)-2-morpholinooxazol-5-yl)(4-(7-fluorobenzo[d]oxazol-2-yl)-6,7-dihydro-1H-imidazo[4,5-c]pyridin-5(4H)-yl)methanone] it is at most 0.5 µM.
On to `Cn1ccc(C(=O)N2CCc3[nH]cnc3C2c2nc3cc(F)ccc3o2)n1` (stereo not shown), for which the AC50 under setting [1] was at least 5 µM.
In the case of `Cc1cccc2oc([C@@H]3c4nc[nH]c4CCN3C(=O)c3cnco3)nc12` [Example 509, (S)-(4-(4-methylbenzo[d]oxazol-2-yl)-6,7-dihydro-1H-imidazo[4,5-c]pyridin-5(4H)-yl)(oxazol-5-yl)methanone], where the note is “A375 R408W cells”, the AC50 was at most 0.5 µM.
On the same count and under the same terms, the figure for `O=C(CC1CC1)N1CCc2[nH]cnc2[C@H]1c1nc2ccc(Br)cc2o1` [Example 3, (S)-1-(4-(6-bromobenzo[d]oxazol-2-yl)-6,7-dihydro-1H-imidazo[4,5-c]pyridin-5(4H)-yl)-2-cyclopropylethanone] is at most 0.5 µM.

Usually AC50 stands for the concentration at which the activity in the assay is half-maximal.
